Results taken from publication PMC10721633 (Nature Communications, 2023).

B1: DnaA^104–446 (Bacillus subtilis DnaA lacking domains I-II; domains III-IV) (domain or fragment, UniProt P05648 104-446, looked up)
chain: SDFPQNMLNPKYTFDTFVIGSGNRFAHAASLAVAEAPAKAYNPLFIYGGVGLGKTHLMHAIGHYVIDHNPSAKVVYLSSEKFTNEFINSIRDNKAVDFRNRYRNVDVLLIDDIQFLAGKEQTQEEFFHTFNTLHEESKQIVISSDRPPKEIPTLEDRLRSRFEWGLITDITPPDLETRIAILRKKAKAEGLDIPNEVMLYIANQIDSNIRELEGALIRVVAYSSLINKDINADLAAEALKDIIPSSKPKVITIKEIQRVVGQQFNIKLEDFKAKKRTKSVAFPRQIAMYLSREMTDSSLPKIGEEFGGRDHTTVIHAHEKISKLLADDEQLQQHVKEIKEQLK
notes: also called DnaA1-7 (the seven protomers in the BUS complex); DnaA^ATP; source: E. coli BL21(DE3)-pLysS, purified (HisTrap, HiTrap Heparin, SUMO protease digestion, second HisTrap flow-through); not shown: His14, N-terminal, cleaved; SUMO, N-terminal, cleaved

What was measured:
[1] = target: T1, DnaA^104-446 (Bacillus subtilis, UniProt P05648); experiment: cryo-EM structure; assay type: binding; settings: BUS DNA scaffold, 2 uM ATP, 1 mM magnesium acetate, pH 7.5, 37 °C, glutaraldehyde crosslinked
T1 construct: domains III-IV, residues 104-446; His14-SUMO tag cleaved; E. coli BL21(DE3)-pLysS; heptamer on tailed BUS DNA, glutaraldehyde crosslinked

[2] = target: T2, DnaA (Bacillus subtilis, UniProt P05648); experiment: single-molecule TIRF DNA strand separation; assay type: biochemical; settings: BUS DNA scaffold, 50 nM DnaA, 10 mM magnesium acetate, 100 mM potassium glutamate, pH 7.6
T2 construct: full length; His14-SUMO tag cleaved; E. coli BL21(DE3)-pLysS

[3] = target: the molecule itself; experiment: cryo-EM structure; 4 µM partially ssDNA scaffold with 40 µM DnaA^104–446 monomer, 10 mM HEPES pH 7.5, 100 mM potassium glutamate, 1 mM magnesium acetate, 2 µM ATP, 37 °C 10 min; cross-linked with 0.1% glutaraldehyde, multimeric complex isolated by SEC (Superdex 200); oligomer assembled on DNA

T2 sequence (P05648 whole entry): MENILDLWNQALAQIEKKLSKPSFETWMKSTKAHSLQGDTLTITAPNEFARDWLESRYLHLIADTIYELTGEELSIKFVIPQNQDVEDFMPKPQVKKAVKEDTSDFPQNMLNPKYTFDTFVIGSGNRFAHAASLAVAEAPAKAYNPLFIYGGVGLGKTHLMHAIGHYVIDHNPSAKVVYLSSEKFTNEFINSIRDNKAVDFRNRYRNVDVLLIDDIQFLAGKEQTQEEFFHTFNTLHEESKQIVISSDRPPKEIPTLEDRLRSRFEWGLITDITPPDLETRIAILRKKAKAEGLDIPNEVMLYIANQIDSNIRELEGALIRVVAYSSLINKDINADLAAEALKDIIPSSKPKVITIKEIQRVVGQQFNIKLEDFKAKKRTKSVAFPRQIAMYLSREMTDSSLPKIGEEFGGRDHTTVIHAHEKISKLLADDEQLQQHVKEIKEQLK

| Molecule | cryo-EM structure [1] | single-molecule TIRF DNA strand separation [2] | stoichiometry N [3] |
| --- | --- | --- | --- |
| Nc1ncnc2c1ncn2[C@@H]1O[C@H](COP(=O)(O)OP(=O)(O)OP(=O)(O)O)[C@@H](O)[C@H]1O [ATP] | The cryo-EM model reveals seven DnaA^ATP protomers (termed DnaA1-7) engaging the DNA scaffold | The addition of DnaA^ATP to the immobilized DNA scaffolds stimulated a reduction in the number | – |
| B1 | – | – | 7 |
